# Laboratory results: patent publication US7629375B2, “Cytoprotective compounds, pharmaceutical and cosmetic formulations, and methods” (Johnson & Johnson Consumer Companies, Inc., priority 2001, dated 2009)
# Tested on: neonatal cardiomyocytes
# Assay: Myocyte calcium-contractility assay
# Format: cell-based, rat
# Settings: anaerobic chamber 16 hours in DMEM 1 mM glucose, reoxygenation two hours
# Method: A. Isolation and Culture of Primary Neonate Myocytes.
# The following materials are employed: • 10× Heart Dissection Solution (HDS) contains the following components (g/l) in tissue grade water: NaCl, 68; HEPES, 47.6; NaH2PO4, 2; Glucose, 10; KCl, 4; MgSO4, 1, pH adjusted to 7.4. Prior to filter sterilization of diluted (1×HDS) solution, 10 mg phenol red is added to each 500 milliliters of medium. • Transferrin and Bovine Insulin (available from Life Technologies) are resuspended at a concentration of 4 mg/ml in tissue culture grade water. • DMEM-F12—DMEM/F12, powder, 1:1 containing glutamine and pyridoxine hydrochloride (available from Life Technologies). To one liter equivalent of the powder is added 2.43 g of sodium bicarbonate and 10 ml of 100× Penicillin/Streptomycin in 950 ml of tissue culture grade water with stirring. The pH is adjusted to 7.2 with 1M HCl and volume adjusted to 1 liter. The solution is filter sterilized, followed by the addition of 2.5 ml of 4 mg/ml Transferrin, 250 μl 4 mg/ml Insulin and 30.7 mg of bromodeoxyuridine. • DMEM-F12-5% FBS is also prepared for pre-coating the tissue culture plates and initial suspension of the cardiomyocyte pellet. • Collagenase solution-57.1 mg of collagenase is resuspended in 140 ml 1×HDS.
# Tissue culture ware is pre-coated with DMEM-F12-5% FBS by incubating […] per well of a 96-well plate and 0.5 ml per 24-well plate at 37° C.
# Two-day old rat pups are removed from their mothers and placed in a sterile container. Pups are dipped quickly into 70% alcohol, then decapitated and the body placed in an empty sterile tissue culture dish. An incision is made starting at the neck and progressing towards the belly, cutting through the sternum. The heart is removed and placed in a tissue culture dishes containing 1×HDS. The atria are trimmed, and the remaining ventricles are placed into a separate tissue culture dish containing 1×HDS, where they are sectioned into 3-4 pieces each. Ventricles are then transferred to a sterile 250 ml glass flask and the 1×HDS is removed. Twenty milliliters of pre-warmed collagenase solution is added to the ventricles, followed by incubation at 37° C. with shaking. After 20 minutes, the collagenase solution is removed and replaced with 20 ml fresh pre-warmed collagenase. Incubation is continued for an additional 20 minutes. At the end of the incubation, any tissue chunks are allowed to settle prior to removing the collagenase (containing the isolated cardiomyocytes) from the disrupted tissue pieces. The isolated myocytes are added to a 50 ml Falcon tube containing 2 ml Fetal Bovine Serum (FBS). The remaining tissue pieces are subjected to a second digestion by adding 20 ml fresh pre-warmed collagenase and incubating as above for 20 minutes. This second digest is then centrifuged at 1000 rpm for 5 minutes (tabletop centrifuge). The resulting supernatant is discarded, and the cell pellet is suspended with 4 ml FBS. The resulting cell suspension is placed in the incubator at 37° C. This step is repeated several additional times to harvest additional material.
# Percoll gradients are prepared by adding 2.5 ml of 10×HDS to 22.5 ml of Percoll (Life Technologies) with mixing (Percoll Stock). Top Gradient solution (11 ml Percoll Stock and 14 ml 1×HDS) and Bottom Gradient solution (13 ml Percoll Stock and 7 ml 1×HDS) are prepared. Four milliliters of the Top Gradient solution is transferred into 6×15 ml sterile Falcon tubes. Three milliliters of the Bottom Gradient solution is placed in each tube by inserting a serological pipette to the bottom of the tube and slowly adding the liquid.
# All the digests (6) are pooled in one 50 ml Falcon tube and centrifuged on a tabletop centrifuge at 1000 rpm for 10 minutes. The supernatant is discarded, and the cell pellet is resuspended in 12 ml of 1×HDS. Two milliliters of the cell suspension is added to the top of each gradient. […]
row,Structure (SMILES),calcium transients (Fluo-4) in amounts indicative of ability guard against ischemic damage and maintain contractile function
1,COc1cc(C=Cc2ccc(C#N)cc2)ccc1O [4-[2-(4-hydroxy-3-methoxy-phenyl)-vinyl]-benzonitrile],presence of calcium transients
2,COC(=O)c1ccc(C=Cc2ccc(C)s2)cc1 [4-[2-(5-methyl-thiophen-2-yl)-vinyl]-benzoic acid methyl ester],presence of calcium transients
3,"COCOc1cc(C=Cc2ccc(C(=O)OC)cc2)cc(CC=C(C)C)c1OCOC [4-{2-[3,4-bis-methoxymethoxy-5-(3-methyl-but-2-enyl)-phenyl]-vinyl}-benzoic acid methyl ester]",presence of calcium transients
4,"COCOc1cc(C=Cc2ccc(C#N)cc2)cc(OCOC)c1CC=C(C)C [4-{2-[3,5-bis-methoxymethoxy-4-(3-methyl-but-2-enyl)-phenyl]-vinyl}-benzonitrile]",presence of calcium transients
5,"COC(=O)c1ccc(C=Cc2cc(CC=C(C)CCC=C(C)C)c(O)c(OC)c2)cc1 [4-{2-[3-(3,7-dimethyl-octa-2,6-dienyl)-4-hydroxy-5-methoxy-phenyl]-vinyl}-benzoic acid methyl ester]",presence of calcium transients
6,"COc1cc(C=Cc2ccc(C#N)cc2)cc(CC=C(C)CCC=C(C)C)c1O [4-{2-[3-(3,7-dimethyl-octa-2,6-dienyl)-4-hydroxy-5-methoxy-phenyl]-vinyl}-benzonitrile]",presence of calcium transients
7,"COCOc1c(CC=C(C)CCC=C(C)C)cc(C=Cc2ccc(C#N)cc2)cc1OC [4-{2-[3-(3,7-dimethyl-octa-2,6-dienyl)-5-methoxy-4-methoxymethoxy-phenyl]-vinyl}-benzonitrile]",presence of calcium transients
8,COCOc1c(CC=C(C)C)cc(C=Cc2ccc(C(=O)OC)cc2)cc1OC [4-{2-[3-methoxy-4-methoxymethoxy-5-(3-methyl-but-2-enyl)-phenyl]-vinyl}-benzoic acid methyl ester],presence of calcium transients
9,"COCOc1cc(C=Cc2ccc(C(=O)OC)cc2)cc(OCOC)c1CC=C(C)CCC=C(C)C [4-{2-[4-(3,7-dimethyl-octa-2,6-dienyl)-3,5-bis-methoxymethoxy-phenyl]-vinyl}-benzoic acid methyl ester]",presence of calcium transients
10,"COCOc1cc(C=Cc2ccc(C#N)cc2)cc(OCOC)c1CC=C(C)CCC=C(C)C [4-{2-[4-(3,7-dimethyl-octa-2,6-dienyl)-3,5-bis-methoxymethoxy-phenyl]-vinyl}-benzonitrile]",presence of calcium transients
11,"Oc1cc(-c2ccc(C=Cc3ccc(O)c(O)c3)cc2)n[nH]1 [4-{2-[4-(5-hydroxy-1H-pyrazol-3-yl)-phenyl]-vinyl}-benzene-1,2-diol]",presence of calcium transients
12,"COCOc1ccc(C=C2SC(=O)NC2=O)cc1OCOC [5-(3,4-bis-methoxymethoxy-benzylidene)-thiazolidine-2,4-dione]",presence of calcium transients
13,"O=C1NC(=O)C(=Cc2ccc(O)c(O)c2)S1 [5-(3,4-dihydroxy-benzylidene)-thiazolidine-2,4-dione]",presence of calcium transients
14,"COCOc1cc(C=Cc2cc(OC)c(OCOC)c(OC)c2)cc(OCOC)c1CC=C(C)C [5-[2-(3,5-dimethoxy-4-methoxymethoxy-phenyl)-vinyl]-2-(3-methyl-but-2-enyl)-1,3-(bis-methoxymethoxy)-benzene]",presence of calcium transients
15,COCOC(=O)c1cc(C=Cc2ccc(C(=O)OC)cc2)ccc1OCOC [5-[2-(4-methoxycarbonyl-phenyl)-vinyl]-2-methoxymethoxy-benzoic acid methoxymethyl ester],presence of calcium transients
16,"O=[N+]([O-])c1ccc(C=Cc2cc(O)cc(O)c2)cc1 [5-[2-(4-nitro-phenyl)-vinyl]-benzene-1,3-diol]",presence of calcium transients
17,"Cc1c(C)c2c(c(COc3ccc(C=C4SC(=O)NC4=O)cc3)c1O)CCC(C)(CCCC(C)CCCC(C)CCCC(C)C)O2 (stereo not shown) [5-{4-[6-hydroxy-2,7,8-trimethyl-2-(4,8,12-trimethyl-tridecyl)-chroman-5-ylmethoxy]-benzylidene}-thiazolidine-2,4-dione]",presence of calcium transients
18,"COCOc1ccc(C=Cc2ccc(N(C)C)cc2)cc1OCOC [{4-[2-(3,4-bis-methoxymethoxy-phenyl)-vinyl]-phenyl}-dimethyl-amine]",presence of calcium transients
19,"CNc1ccc(C=Cc2ccc(OCOC)c(OCOC)c2)cc1 [{4-[2-(3,4-bis-methoxymethoxy-phenyl)-vinyl]-phenyl}-methyl-amine]",presence of calcium transients
